The text below walks through data of US20250163104A1, “MACROCYCLIC IMMUNOMODULATORS” (priority 2021, published 2025).

The structures appear in SMILES notation. Where a SMILES comes first, the peptide text is derived from it. Bridges are numbered along the chain shown (N, C = ends). [ ]: non-standard residue; d: D form. The star is where a group is joined. Phe(4-COOH) = N[C@@H](Cc1ccc(C(=O)O)cc1)C(=O)O; Bip = N[C@@H](Cc1ccc(-c2ccccc2)cc1)C(=O)O; Phe(3-OMe) = COc1cccc(C[C@H](N)C(=O)O)c1; Phe(3-Me) = Cc1cccc(C[C@H](N)C(=O)O)c1; 4Pal = N[C@@H](Cc1ccncc1)C(=O)O; Cit = NC(=O)NCCC[C@H](N)C(=O)O; Carboxymethyl = O=C(O)C*; Nle = CCCC[C@H](N)C(=O)O; Orn = NCCC[C@H](N)C(=O)O; Dab = NCC[C@H](N)C(=O)O

T1 sequence (Q15116 25-288): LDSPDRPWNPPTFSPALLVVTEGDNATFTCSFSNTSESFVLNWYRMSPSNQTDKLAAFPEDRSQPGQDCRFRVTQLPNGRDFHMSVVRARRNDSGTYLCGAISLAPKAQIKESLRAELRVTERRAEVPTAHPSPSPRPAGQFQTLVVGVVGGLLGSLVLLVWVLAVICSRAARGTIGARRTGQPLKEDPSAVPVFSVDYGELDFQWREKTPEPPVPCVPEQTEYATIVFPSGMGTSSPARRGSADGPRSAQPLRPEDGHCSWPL

One assay addresses T1, human PD-1 / PD-L1-Ig binding on Jurkat cell line over-expressing human PD-1 (Jurkat-PD-1) (Homo sapiens, UniProt Q15116).
T1 construct: expressed in transfected cells; host or cells: Jurkat
The assay is described as follows: Jurkat-PD-1 Cell Binding High-Content Screening Assay (CBA). Type of assay: cell-based. As to conditions: Jurkat HPD1_PDL1 IC50, Jurkat-PD-1 cells, PE-labeled PD-L1-Ig 20 nM final. In a few lines: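 Jurkat-hPD-1 cells in DMEM with 10% fetal calf serum receive test compound and are held at 37° C for 2 h. PE-labeled PD-L1-Ig is added at 20 nM final and left for 1 hour. Cells are then fixed and Hoechst-stained, and binding is measured by imaging.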
The compound `CC[C@H](C)[C@@H]1NC(=O)[C@H](Cc2ccc(-c3ccccc3)cc2)NC(=O)[C@H](C(C)C)NC(=O)[C@H](Cc2cccc(C)c2)NC(=O)[C@H](CC(=O)O)NC(=O)[C@H](Cc2ccc(OCC(=O)O)cc2)NC(=O)[C@H](Cc2ccncc2)NC(=O)CSC[C@@H](C(=O)N[C@@H](C)C(N)=O)NC(=O)[C@H]([C@@H](C)O)NC(=O)[C@H](C(C)C)NC(=O)[C@H](CC(C)C)NC(=O)[C@H](CCN)NC(=O)[C@@H](CC(C)C)NC(=O)[C@H](CCCN)NC1=O` [Compound 1186] displayed an IC50 of 5.8 nM.

On to `CC[C@H](C)[C@@H]1NC(=O)[C@H](Cc2ccc(-c3ccccc3)cc2)NC(=O)[C@H](C(C)C)NC(=O)[C@H](Cc2cccc(OC)c2)NC(=O)[C@H](CC(=O)O)NC(=O)[C@H](Cc2ccc(OCC(=O)O)cc2)NC(=O)[C@H](Cc2ccncc2)NC(=O)CSC[C@@H](C(=O)N[C@@H](C)C(N)=O)NC(=O)[C@H]([C@@H](C)O)NC(=O)[C@H](C(C)C)NC(=O)[C@H](CC(C)C)NC(=O)[C@H](CCN)NC(=O)[C@@H](CC(C)C)NC(=O)[C@H](CCCN)NC1=O` [Compound 1187], for which the concentration for half-maximal inhibition (IC50) turned out to be 10.7 nM.

Staying with this assay, now noted: Jurkat-PD-1 cells, PE-labeled PD-L1-Ig 20 nM final; read-out: Jurkat HPD1_PDL1 IC50.
Regarding `CCCC[C@@H]1NC(=O)[C@H](CCCNC(=N)N)NC(=O)[C@@H](CC(C)C)NC(=O)[C@H](CCCN)NC(=O)[C@H](CCCNC(N)=O)NC(=O)[C@H](Cc2ccc(-c3ccccc3)cc2)NC(=O)[C@H](C(C)C)NC(=O)[C@H](Cc2c[nH]c3ccccc23)NC(=O)[C@H](CC(=O)O)NC(=O)[C@H](Cc2ccc(O)cc2)NC(=O)[C@H](CC(N)=O)NC(=O)CSC[C@@H](C(=O)N[C@@H](C)C(N)=O)NC(=O)[C@H]([C@@H](C)O)NC(=O)[C@H](C(C)C)NC1=O` [Compound 1177] ({CH2CO}-NYDWV[Bip][Cit][Orn][dL]R[Nle]VTCA-NH2; thioether N-14), the half-maximal inhibitory concentration (IC50) was 78.9 nM.

As to `Cc1cccc(C[C@@H]2NC(=O)[C@H](CC(=O)O)NC(=O)[C@H](Cc3ccc(C(=O)O)cc3)NC(=O)[C@H](Cc3ccncc3)NC(=O)CSC[C@@H](C(=O)N[C@@H](C)C(N)=O)NC(=O)[C@H]([C@@H](C)O)NC(=O)[C@H](C(C)C)NC(=O)[C@H](CC(C)C)NC(=O)[C@H](CCN)NC(=O)[C@@H](CC(C)C)NC(=O)[C@H](CCCN)NC(=O)[C@H](CCCNC(N)=O)NC(=O)[C@H](Cc3ccc(-c4ccccc4)cc3)NC(=O)[C@H](C(C)C)NC2=O)c1` [Compound 1178] ({CH2CO}-[4Pal][Phe(4-COOH)]D[Phe(3-Me)]V[Bip][Cit][Orn][dL][Dab]LVTCA-NH2; thioether N-14), the IC50 was 4.1 nM.

`COc1cccc(C[C@@H]2NC(=O)[C@H](CC(=O)O)NC(=O)[C@H](Cc3ccc(C(=O)O)cc3)NC(=O)[C@H](Cc3ccncc3)NC(=O)CSC[C@@H](C(=O)N[C@@H](C)C(N)=O)NC(=O)[C@H]([C@@H](C)O)NC(=O)[C@H](C(C)C)NC(=O)[C@H](CC(C)C)NC(=O)[C@H](CCN)NC(=O)[C@@H](CC(C)C)NC(=O)[C@H](CCCN)NC(=O)[C@H](CCCNC(N)=O)NC(=O)[C@H](Cc3ccc(-c4ccccc4)cc3)NC(=O)[C@H](C(C)C)NC2=O)c1` [Compound 1179] ({CH2CO}-[4Pal][Phe(4-COOH)]D[Phe(3-OMe)]V[Bip][Cit][Orn][dL][Dab]LVTCA-NH2; thioether N-14): the IC50 turned out to be 5.8 nM.

Consider `CC[C@H](C)[C@@H]1NC(=O)[C@H](Cc2ccc(-c3ccccc3)cc2)NC(=O)[C@H](C(C)C)NC(=O)[C@H](Cc2cccc(C)c2)NC(=O)[C@H](CC(=O)O)NC(=O)[C@H](Cc2ccc(C(=O)O)cc2)NC(=O)[C@H](Cc2ccncc2)NC(=O)CSC[C@@H](C(=O)N[C@@H](C)C(N)=O)NC(=O)[C@H]([C@@H](C)O)NC(=O)[C@H](C(C)C)NC(=O)[C@H](CC(C)C)NC(=O)[C@H](CCN)NC(=O)[C@@H](CC(C)C)NC(=O)[C@H](CCCN)NC1=O` [Compound 1180], for which the IC50 came to 8.9 nM.

Consider `CC[C@H](C)[C@@H]1NC(=O)[C@H](Cc2ccc(-c3ccccc3)cc2)NC(=O)[C@H](C(C)C)NC(=O)[C@H](Cc2cccc(OC)c2)NC(=O)[C@H](CC(=O)O)NC(=O)[C@H](Cc2ccc(C(=O)O)cc2)NC(=O)[C@H](Cc2ccncc2)NC(=O)CSC[C@@H](C(=O)N[C@@H](C)C(N)=O)NC(=O)[C@H]([C@@H](C)O)NC(=O)[C@H](C(C)C)NC(=O)[C@H](CC(C)C)NC(=O)[C@H](CCN)NC(=O)[C@@H](CC(C)C)NC(=O)[C@H](CCCN)NC1=O` [Compound 1181], for which the IC50 amounted to 12 nM.

Consider `Cc1cccc(C[C@@H]2NC(=O)[C@H](CC(=O)O)NC(=O)[C@H](Cc3ccc(C(=O)O)cc3)NC(=O)[C@H](Cc3ccncc3)NC(=O)CSC[C@@H](C(=O)N[C@@H](C)C(N)=O)NC(=O)[C@H]([C@@H](C)O)NC(=O)[C@H](C(C)C)NC(=O)[C@H](CC(C)C)NC(=O)[C@H](CCN)NC(=O)[C@@H](CC(C)C)NC(=O)[C@H](CCCN)NC(=O)[C@H](C(C)C)NC(=O)[C@H](Cc3ccc(-c4ccccc4)cc3)NC(=O)[C@H](C(C)C)NC2=O)c1` [Compound 1182] ({CH2CO}-[4Pal][Phe(4-COOH)]D[Phe(3-Me)]V[Bip]V[Orn][dL][Dab]LVTCA-NH2; thioether N-14), for which the half-maximal inhibitory concentration (IC50) was 8.2 nM.

Consider `COc1cccc(C[C@@H]2NC(=O)[C@H](CC(=O)O)NC(=O)[C@H](Cc3ccc(C(=O)O)cc3)NC(=O)[C@H](Cc3ccncc3)NC(=O)CSC[C@@H](C(=O)N[C@@H](C)C(N)=O)NC(=O)[C@H]([C@@H](C)O)NC(=O)[C@H](C(C)C)NC(=O)[C@H](CC(C)C)NC(=O)[C@H](CCN)NC(=O)[C@@H](CC(C)C)NC(=O)[C@H](CCCN)NC(=O)[C@H](C(C)C)NC(=O)[C@H](Cc3ccc(-c4ccccc4)cc3)NC(=O)[C@H](C(C)C)NC2=O)c1` [Compound 1183] ({CH2CO}-[4Pal][Phe(4-COOH)]D[Phe(3-OMe)]V[Bip]V[Orn][dL][Dab]LVTCA-NH2; thioether N-14), for which the IC50 came to 6.1 nM.

In the case of `Cc1cccc(C[C@@H]2NC(=O)[C@H](CC(=O)O)NC(=O)[C@H](Cc3ccc(OCC(=O)O)cc3)NC(=O)[C@H](Cc3ccncc3)NC(=O)CSC[C@@H](C(=O)N[C@@H](C)C(N)=O)NC(=O)[C@H]([C@@H](C)O)NC(=O)[C@H](C(C)C)NC(=O)[C@H](CC(C)C)NC(=O)[C@H](CCN)NC(=O)[C@@H](CC(C)C)NC(=O)[C@H](CCCN)NC(=O)[C@H](CCCNC(N)=O)NC(=O)[C@H](Cc3ccc(-c4ccccc4)cc3)NC(=O)[C@H](C(C)C)NC2=O)c1` [Compound 1184] ({CH2CO}-[4Pal]Y(Carboxymethyl)D[Phe(3-Me)]V[Bip][Cit][Orn][dL][Dab]LVTCA-NH2; thioether N-14), the half-maximal inhibitory concentration (IC50) amounted to 6.2 nM.

For the compound `COc1cccc(C[C@@H]2NC(=O)[C@H](CC(=O)O)NC(=O)[C@H](Cc3ccc(OCC(=O)O)cc3)NC(=O)[C@H](Cc3ccncc3)NC(=O)CSC[C@@H](C(=O)N[C@@H](C)C(N)=O)NC(=O)[C@H]([C@@H](C)O)NC(=O)[C@H](C(C)C)NC(=O)[C@H](CC(C)C)NC(=O)[C@H](CCN)NC(=O)[C@@H](CC(C)C)NC(=O)[C@H](CCCN)NC(=O)[C@H](CCCNC(N)=O)NC(=O)[C@H](Cc3ccc(-c4ccccc4)cc3)NC(=O)[C@H](C(C)C)NC2=O)c1` [Compound 1185] ({CH2CO}-[4Pal]Y(Carboxymethyl)D[Phe(3-OMe)]V[Bip][Cit][Orn][dL][Dab]LVTCA-NH2; thioether N-14), the IC50 amounted to 7.4 nM.

`COc1cccc(C[C@@H]2NC(=O)[C@H](CC(=O)O)NC(=O)[C@H](Cc3ccc(OCC(=O)O)cc3)NC(=O)[C@H](Cc3ccncc3)NC(=O)CSC[C@@H](C(=O)N[C@@H](C)C(N)=O)NC(=O)[C@H]([C@@H](C)O)NC(=O)[C@H](C(C)C)NC(=O)[C@H](CC(C)C)NC(=O)[C@H](CCN)NC(=O)[C@@H](CC(C)C)NC(=O)[C@H](CCCN)NC(=O)[C@H](C(C)C)NC(=O)[C@H](Cc3ccc(-c4ccccc4)cc3)NC(=O)[C@H](C(C)C)NC2=O)c1` [Compound 1188] ({CH2CO}-[4Pal]Y(Carboxymethyl)D[Phe(3-OMe)]V[Bip]V[Orn][dL][Dab]LVTCA-NH2; thioether N-14): the IC50 came out at 7.9 nM.

For the compound `CCCC[C@@H]1NC(=O)[C@H](CCN)NC(=O)[C@@H](CC(C)C)NC(=O)[C@H](CCCN)NC(=O)[C@H](CCCNC(N)=O)NC(=O)[C@H](Cc2ccc(-c3ccccc3)cc2)NC(=O)[C@H](C(C)C)NC(=O)[C@H](Cc2cccc(C)c2)NC(=O)[C@H](CC(=O)O)NC(=O)[C@H](Cc2ccc(C(=O)O)cc2)NC(=O)[C@H](Cc2ccncc2)NC(=O)CSC[C@@H](C(=O)N[C@@H](C)C(N)=O)NC(=O)[C@H]([C@@H](C)O)NC(=O)[C@H](C(C)C)NC1=O` [Compound 1189] ({CH2CO}-[4Pal][Phe(4-COOH)]D[Phe(3-Me)]V[Bip][Cit][Orn][dL][Dab][Nle]VTCA-NH2; thioether N-14), the IC50 was determined as 17.7 nM.

For `Cc1cccc(C[C@@H]2NC(=O)[C@H](CC(=O)O)NC(=O)[C@H](Cc3ccc(C(=O)O)cc3)NC(=O)[C@H](Cc3ccncc3)NC(=O)CSC[C@@H](C(=O)N[C@@H](C)C(N)=O)NC(=O)[C@H]([C@@H](C)O)NC(=O)[C@H](C(C)C)NC(=O)[C@H](CC3CCCCC3)NC(=O)[C@H](CCN)NC(=O)[C@@H](CC(C)C)NC(=O)[C@H](CCCN)NC(=O)[C@H](CCCNC(N)=O)NC(=O)[C@H](Cc3ccc(-c4ccccc4)cc3)NC(=O)[C@H](C(C)C)NC2=O)c1` [Compound 1190], the IC50 came to 4.5 nM.

Regarding `CCCC[C@@H]1NC(=O)[C@H](CCN)NC(=O)[C@@H](CC(C)C)NC(=O)[C@H](CCCN)NC(=O)[C@H]([C@@H](C)CC)NC(=O)[C@H](Cc2ccc(-c3ccccc3)cc2)NC(=O)[C@H](C(C)C)NC(=O)[C@H](Cc2cccc(C)c2)NC(=O)[C@H](CC(=O)O)NC(=O)[C@H](Cc2ccc(C(=O)O)cc2)NC(=O)[C@H](Cc2ccncc2)NC(=O)CSC[C@@H](C(=O)N[C@@H](C)C(N)=O)NC(=O)[C@H]([C@@H](C)O)NC(=O)[C@H](C(C)C)NC1=O` [Compound 1191], the IC50 came to 10 nM.

A word on the IC50: it is the midpoint of a concentration-inhibition curve.
